ChEMBL document CHEMBL1150134, “Triterpenoid constituents isolated from the bark of Abies sachalinensis” (J Nat Prod, 2002)
Active and inactive are the calls of the source. The calls are words filed in the database; no cut-off is given here.

Assays:
Homo sapiens = species on record: Homo sapiens; assay: Inhibition of human DNA topoisomerase 1 at 200 uM
[1] = molecular target: T1, DNA topoisomerase 2-alpha (Homo sapiens, UniProt P11388); assay: Inhibition of human DNA topoisomerase 2alpha at 200 uM
[2] = molecular target: T1, DNA topoisomerase 2-alpha; assay: Inhibition of human DNA topoisomerase 2alpha

T1 sequence (P11388 whole entry): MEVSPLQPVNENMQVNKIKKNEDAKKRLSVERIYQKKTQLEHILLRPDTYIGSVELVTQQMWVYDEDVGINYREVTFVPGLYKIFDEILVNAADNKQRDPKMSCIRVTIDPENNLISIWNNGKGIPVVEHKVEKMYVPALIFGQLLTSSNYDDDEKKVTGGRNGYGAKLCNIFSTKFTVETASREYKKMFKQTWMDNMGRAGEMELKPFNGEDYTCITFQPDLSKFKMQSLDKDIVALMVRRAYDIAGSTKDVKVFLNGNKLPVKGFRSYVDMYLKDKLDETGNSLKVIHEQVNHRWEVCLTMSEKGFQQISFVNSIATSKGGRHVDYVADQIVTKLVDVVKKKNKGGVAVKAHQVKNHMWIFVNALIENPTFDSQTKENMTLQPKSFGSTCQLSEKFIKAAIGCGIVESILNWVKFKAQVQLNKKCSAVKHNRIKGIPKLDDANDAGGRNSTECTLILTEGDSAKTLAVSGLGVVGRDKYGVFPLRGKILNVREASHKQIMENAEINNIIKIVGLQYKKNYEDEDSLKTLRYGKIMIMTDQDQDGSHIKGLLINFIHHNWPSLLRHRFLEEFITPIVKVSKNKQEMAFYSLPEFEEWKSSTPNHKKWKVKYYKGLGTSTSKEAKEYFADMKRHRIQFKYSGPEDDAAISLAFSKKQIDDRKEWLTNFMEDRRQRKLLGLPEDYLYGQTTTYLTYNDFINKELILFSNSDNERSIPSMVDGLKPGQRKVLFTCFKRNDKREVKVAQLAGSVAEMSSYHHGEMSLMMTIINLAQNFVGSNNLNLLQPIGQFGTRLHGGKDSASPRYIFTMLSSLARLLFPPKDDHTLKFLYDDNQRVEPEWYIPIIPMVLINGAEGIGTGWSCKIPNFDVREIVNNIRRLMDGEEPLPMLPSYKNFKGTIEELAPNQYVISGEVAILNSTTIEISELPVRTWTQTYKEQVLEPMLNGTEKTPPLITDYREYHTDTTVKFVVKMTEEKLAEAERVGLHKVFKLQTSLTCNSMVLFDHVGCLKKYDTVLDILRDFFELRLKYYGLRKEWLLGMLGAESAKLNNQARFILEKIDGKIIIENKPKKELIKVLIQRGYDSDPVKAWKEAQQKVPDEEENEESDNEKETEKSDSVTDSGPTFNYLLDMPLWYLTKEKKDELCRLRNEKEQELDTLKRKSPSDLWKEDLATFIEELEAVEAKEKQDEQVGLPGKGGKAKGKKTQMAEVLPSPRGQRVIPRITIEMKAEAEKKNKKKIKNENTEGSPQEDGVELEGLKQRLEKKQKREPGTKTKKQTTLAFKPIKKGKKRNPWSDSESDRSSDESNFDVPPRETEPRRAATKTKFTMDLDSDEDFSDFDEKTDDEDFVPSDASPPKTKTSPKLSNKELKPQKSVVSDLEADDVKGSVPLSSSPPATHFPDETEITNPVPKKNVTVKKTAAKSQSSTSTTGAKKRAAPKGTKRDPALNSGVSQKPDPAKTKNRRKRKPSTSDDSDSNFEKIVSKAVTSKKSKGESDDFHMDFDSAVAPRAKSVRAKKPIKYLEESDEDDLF

Compound | Activity (Homo sapiens) | inhibition [1] [%] | Activity [2] | IC50 [2] [µM] | Activity [1]
C=C(C)[C@@H]1CC=C2[C@@H](CC[C@]3(C)[C@@H]([C@H](C)C[C@@H]4C[C@@H](C)C(=O)O4)CC[C@@]23C)[C@@]1(C)CCC(=O)OC | inactive | – | Dose-dependent effect | 75.7 | Active
C=C(C)[C@@H]1CC=C2[C@@H](CC[C@]3(C)[C@@H]([C@H](C)C[C@@H]4C[C@@H](C)C(=O)O4)CC[C@@]23C)[C@@]1(C)CCC(=O)O | inactive | – | Dose-dependent effect | 42.6 | Active
C=C(C)[C@@H]1CC=C2[C@@H](CC[C@]3(C)[C@@H]([C@H](C)C[C@H](O)C[C@@H](C)CO)CC[C@@]23C)[C@@]1(C)CCCO | inactive | – | Dose-dependent effect | 50.4 | Active

Other lines, results leading:

Activity (Homo sapiens) | inhibition [1] [%] | Activity [2] | IC50 [2] [µM] | Activity [1] | Compound
inactive | 4 | – | – | – | C=C(C)[C@@H]1CC=C2[C@@H](CC[C@]3(C)[C@@H]([C@H](C)CC(=O)C[C@@H](C)C(=O)O)CC[C@@]23C)[C@@]1(C)CCC(=O)O
inactive | – | Dose-dependent effect | 67.3 | Active | C=C(C)[C@@H]1CC=C2[C@@H](CC[C@]3(C)[C@@H]([C@H](C)CC(=O)C[C@@H](C)C(=O)OC)CC[C@@]23C)[C@@]1(C)CCC(=O)OC
